# Measurements reported in patent publication US20040033524A1, “Beta-adrenoceptor genetic polymorphisms and obesity” (priority 2001, published 2004).
# Tested on: individuals with hypertension
# Assay: Blood pressure and heart rate response to metoprolol by β1AR codon 389 / codon 49 genotype
# Type: in vivo, human
# Details: for 24 hr SBP response (% change) / 24 hr DBP response (% change) / Daytime DBP response (% change) / Daytime SBP response (% change) / Nighttime DBP response (% change) / Nighttime SBP response (% change): at least 4 weeks
# Experimental: Genetic variation (polymorphisms) in the gene encoding the beta 1-adrenergic receptor (β1AR) contribute to the variability in response to beta-blockers. There are two common, non-synonymous polymorphisms of the P AR gene and they result in either a serine (Ser) or glycine (Gly) at codon 49, and arginine (Arg) or glycine (Gly) at codon 389. The relationship between these polymorphisms and heart rate and blood pressure response to the beta-blocker metoprolol was tested in 28 individuals with hypertension.
# Patients were washed out from all their antihypertensive medications for at least 2 weeks. They then underwent baseline testing which included recording of 24-hour ambulatory blood pressure data and treadmill exercise heart rate responses at 10 AM and 2 PM. Patients were started on metoprolol and titrated to a dose that produced a diastolic blood pressure DBP<90 mm Hg, or until they reached the maximum dose (200 mg twice daily). Patients were maintained on this target dose for at least 4 weeks and then underwent repeat studies, as at baseline.
# Patients were also divided as responders or non-responders, with non-responders defined as those with a <10% decline in DBP, and compared allele frequencies in these groups.
# [1] = Arg389Arg genotype, metoprolol titrated
# [2] = Ser49Ser genotype, metoprolol titrated
# [3] = codon 49 Gly carriers, metoprolol titrated
# [4] = codon 389 Gly carriers, metoprolol titrated
smiles,measurement,setting,value
COCCc1ccc(OCC(O)CNC(C)C)cc1 (stereo not drawn) [metoprolol],24 hr SBP response (% change),"Arg389Arg genotype, metoprolol titrated to DBP<90 mm Hg or max 200 mg twice daily, 24-hour ambulatory BP vs baseline",−10.5 ± 7.9 % change
same,24 hr DBP response (% change),[1],−12.6 ± 7.4 % change
same,Daytime DBP response (% change),[1],−13.6 ± 7.2 % change
same,Daytime SBP response (% change),[1],−11.6 ± 8.0 % change
same,Nighttime DBP response (% change),[1],−10.6 ± 11.6 % change
same,Nighttime SBP response (% change),[1],−7.5 ± 9.5 % change
same,Daytime blood pressure response,"Arg389 homozygotes compared to carriers of Gly389, not nighttime",significantly greater
same,24 hr DBP response (% change),[2],−10.7 ± 7.8 % change
same,24 hr SBP response (% change),[2],−10.1 ± 9.1 % change
same,Daytime DBP response (% change),[2],−10.3 ± 8.2 % change
same,Daytime SBP response (% change),[2],−10.2 ± 9.3 % change
same,Nighttime DBP response (% change),[2],−12.4 ± 9.4 % change
same,Nighttime SBP response (% change),[2],−9.3 ± 10.9 % change
same,change in nighttime blood pressure,Ser49 homozygotes compared to carriers of the Gly49 allele,significantly greater
same,24 hr DBP response (% change),[3],−3.9 ± 8.9 % change
same,24 hr SBP response (% change),[3],−0.6 ± 12.2 % change
same,Daytime DBP response (% change),[3],−4.0 ± 10.4 % change
same,Daytime SBP response (% change),[3],−1.0 ± 12.8 % change
same,Nighttime DBP response (% change),[3],−3.1 ± 9.0 % change
same,Nighttime SBP response (% change),[3],+0.6 ± 11.8 % change
same,24 hr DBP response (% change),[4],−4.6 ± 8.3 % change
same,Daytime DBP response (% change),[4],−3.5 ± 8.7 % change
same,Daytime SBP response (% change),[4],−2.8 ± 12.5 % change
same,Nighttime DBP response (% change),[4],−7.3 ± 9.1 % change
same,Nighttime SBP response (% change),[4],−3.9 ± 13.9 % change
same,24 hr SBP response (% change),"codon 389 Gly carriers, metoprolol titrated, ambulatory BP vs baseline",−3.3 ± 12.6 % change
same,heart rate response to beta-blockade,"treadmill exercise heart rate, relation to β1AR genotype",not associated with genotype
